Assay [1] has as its target T1, human JAK1 (a.a. 837-1142) (Homo sapiens, UniProt P23458).
T1 construct: human JAK1 (a.a. 837-1142); His tag (N); made in house; host or cells: insect cells (baculovirus)
Nature of the assay: In vitro JAK kinase assay (HTRF, phosphorylation of a biotinylated peptide), JAK1. The assay is classed as biochemical. The gist of the method: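 His-tagged catalytic domains (JAK1 a.a. 837-1142, JAK2 a.a. 828-1132) from insect cells phosphorylate 500 nM biotinylated peptide in 50 mM Tris pH 7.8, 100 mM NaCl, 5 mM DTT; ATP at Km (90 μM JAK1, 30 μM JAK2) or 1 mM, as indicated. 1 h at RT; EDTA stop, HTRF readout; IC50s.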
A general note: In TR-FRET formats the signal depends on donor and acceptor labels being close together.

For another assay, the target named is T2, Jak2 (a.a. 828-1132) (Homo sapiens, UniProt O60674).
T2 construct: Jak2 (a.a. 828-1132); His tag (N); made in house; host or cells: insect cells (baculovirus)
T2 sequence (O60674 828-1132): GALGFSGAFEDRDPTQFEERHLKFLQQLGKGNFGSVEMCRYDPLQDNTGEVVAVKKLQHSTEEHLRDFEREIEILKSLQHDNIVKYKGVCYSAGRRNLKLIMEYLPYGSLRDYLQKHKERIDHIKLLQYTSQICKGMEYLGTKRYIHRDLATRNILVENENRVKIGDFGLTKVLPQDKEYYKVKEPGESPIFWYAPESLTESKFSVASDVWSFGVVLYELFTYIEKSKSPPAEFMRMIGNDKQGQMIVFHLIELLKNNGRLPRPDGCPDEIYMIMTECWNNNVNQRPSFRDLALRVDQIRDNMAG
The assay is described as follows: In vitro JAK kinase assay (HTRF, phosphorylation of a biotinylated peptide), JAK2, reported as JAK2/JAK1 ratio. In kind it is biochemical.

[2] abbreviates: Assay Conditions Km (ATP 90 μM for Jak1).
Setting [3] is: Assay Conditions Km (ATP 90 μM for Jak1, 30 μM for Jak2).

Data on nine compounds can be found in patent US8716303B2, “N-(hetero)aryl-pyrrolidine derivatives of pyrazol-4-yl-pyrrolo[2,3-d]pyrimidines and pyrrol-3-yl-pyrrolo[2,3-d]pyrimidines as janus kinase inhibitors” (Incyte Corporation, priority 2009, dated 2014).

As a reminder, the IC50 is the midpoint of a concentration-inhibition curve. Read a high IC50 as lower potency.

Structures can show the parent of a compound that is named as a salt.

T1 sequence (P23458 849-1154): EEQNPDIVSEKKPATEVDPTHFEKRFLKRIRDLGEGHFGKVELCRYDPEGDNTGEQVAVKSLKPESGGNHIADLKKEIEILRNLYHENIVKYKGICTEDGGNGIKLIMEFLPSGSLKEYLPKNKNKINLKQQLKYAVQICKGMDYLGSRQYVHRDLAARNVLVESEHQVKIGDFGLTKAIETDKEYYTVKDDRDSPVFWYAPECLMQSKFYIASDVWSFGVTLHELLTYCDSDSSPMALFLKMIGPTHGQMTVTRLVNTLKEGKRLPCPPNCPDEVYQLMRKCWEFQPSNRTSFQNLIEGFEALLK

`N#CCC(C1CCN(c2nc3cccc(F)c3o2)C1)n1cc(-c2ncnc3[nH]ccc23)cn1` (single isomer, unassigned) [Example 21, 3-[1-(7-fluoro-1,3-benzoxazol-2-yl)pyrrolidin-3-yl]-3-[4-(7H-pyrrolo[2,3-d]pyrimidin-4-yl)-1H-pyrazol-1-yl]propanenitrile] returned an IC50 in assay [1] (Assay Conditions 1 mM ATP) of under 50 nM. In addition, the “JAK2/JAK1 IC50 ratio” value on Jak2 (a.a. 828-1132) (Assay Conditions 1 mM ATP) is 31.8.

For `N#CCC(C1CCN(c2nc3cnccc3o2)C1)n1cc(-c2ncnc3[nH]ccc23)cn1` (single isomer, unassigned) [Example 11, 3-(1-[1,3]oxazolo[4,5-c]pyridin-2-ylpyrrolidin-3-yl)-3-[4-(7H-pyrrolo[2,3-d]pyrimidin-4-yl)-1H-pyrazol-1-yl]propanenitrile], the IC50 in assay [1] (setting [2]) was under 50 nM. The “JAK2/JAK1 IC50 ratio” value on Jak2 (a.a. 828-1132) (setting [3]) stood at 2.9.

Turning to `CC(C)Nc1ccnc(N2CCC(C(CC#N)n3cc(-c4ncnc5[nH]ccc45)cn3)C2)n1` (stereo not drawn) [Example 7, 3-{1-[4-(isopropylamino)pyrimidin-2-yl]pyrrolidin-3-yl}-3-[4-(7H-pyrrolo[2,3-d]pyrimidin-4-yl)-1H-pyrazol-1-yl]propanenitrile], in assay [1] (setting [2]), the IC50 is under 50 nM. Further, the “JAK2/JAK1 IC50 ratio” value at Jak2 (a.a. 828-1132) (setting [3]) was found to be 4.7.

Consider `N#CCC(C1CCN(c2nc3c(F)cccc3o2)C1)n1cc(-c2ncnc3[nH]ccc23)cn1` (single isomer, unassigned) [Example 20, 3-[1-(4-fluoro-1,3-benzoxazol-2-yl)pyrrolidin-3-yl]-3-[4-(7H-pyrrolo[2,3-d]pyrimidin-4-yl)-1H-pyrazol-1-yl]propanenitrile], for which the IC50 in assay [1] (Assay Conditions 1 mM ATP) was under 50 nM. The “JAK2/JAK1 IC50 ratio” value at Jak2 (a.a. 828-1132) (Assay Conditions 1 mM ATP) turned out to be 10.4.

As to `N#CC[C@@H]([C@H]1CCN(c2ccc(Cl)nc2Cl)C1)n1cc(-c2ncnc3[nH]ccc23)cn1` [Example 125, (3S)-3-[(3S)-1-(2,6-dichloropyridin-3-yl)pyrrolidin-3-yl]-3-[4-(7H-pyrrolo[2,3-d]pyrimidin-4-yl)-1H-pyrazol-1-yl]propanenitrile trifluoroacetate], in assay [1] (Assay Conditions 1 mM ATP), the IC50 was under 50 nM. Further, the “JAK2/JAK1 IC50 ratio” value at Jak2 (a.a. 828-1132) (Assay Conditions 1 mM ATP) is 132.5.

`N#CC[C@@H]([C@H]1CCN(c2ccnnc2C#N)C1)n1cc(-c2ncnc3[nH]ccc23)cn1` [Example 106, 4-((S)-3-((S)-1-(4-(7H-pyrrolo[2,3-d]pyrimidin-4-yl)-1H-pyrazol-1-yl)-2-cyanoethyl)pyrrolidin-1-yl) pyridazine-3-carbonitrile trifluoroacetate salt] showed an IC50 in assay [1] (Assay Conditions 1 mM ATP) of under 50 nM. Besides, on Jak2 (a.a. 828-1132) (Assay Conditions 1 mM ATP), the “JAK2/JAK1 IC50 ratio” value stood at 12.6.

Take `N#CC[C@@H]([C@H]1CCN(c2ncc3ncsc3n2)C1)n1cc(-c2ncnc3[nH]ccc23)cn1` [Example 102, (3S)-3-[4-(7H-pyrrolo[2,3-d]pyrimidin-4-yl)-1H-pyrazol-1-yl]-3-[(3S)-1-[1,3]thiazolo[5,4-d]pyrimidin-5-ylpyrrolidin-3-yl]propanenitrile bis(trifluoroacetate)]: the IC50 in assay [1] (Assay Conditions 1 mM ATP) is under 50 nM. For the same compound, the “JAK2/JAK1 IC50 ratio” value on Jak2 (a.a. 828-1132) (Assay Conditions 1 mM ATP) amounted to 12.8.

On to `N#CC[C@@H]([C@H]1CCN(c2nc(Cl)c(F)cc2N)C1)n1cc(-c2ncnc3[nH]ccc23)cn1.O=C(O)C(F)(F)F.O=C(O)C(F)(F)F` [Example 91B, (3S)-3-[(3S)-1-(3-amino-6-chloro-5-fluoropyridin-2-yl)pyrrolidin-3-yl]-3-[4-(7H-pyrrolo[2,3-d]pyrimidin-4-yl)-1H-pyrazol-1-yl]propanenitrile bis(trifluoroacetate)], for which the IC50 in assay [1] (Assay Conditions 1 mM ATP) is under 50 nM. On Jak2 (a.a. 828-1132) (Assay Conditions 1 mM ATP), the “JAK2/JAK1 IC50 ratio” value amounted to 7.0.

`N#CC[C@@H]([C@H]1CCN(c2nc(Cl)ccc2N)C1)n1cc(-c2ncnc3[nH]ccc23)cn1` [Example 105, (S)-3-(4-(7H-pyrrolo[2,3-d]pyrimidin-4-yl)-1H-pyrazol-1-yl)-3-((S)-1-(3-amino-6-chloropyridin-2-yl)pyrrolidin-3-yl)propanenitrile trifluoroacetate salt]: in assay [1] (Assay Conditions 1 mM ATP), the IC50 is under 50 nM. The “JAK2/JAK1 IC50 ratio” value on Jak2 (a.a. 828-1132) (Assay Conditions 1 mM ATP) was 3.0.
